Reference: patent publication US8629093B2, “Detergent composition comprising mixture of chelants” (The Procter & Gamble Company, priority 2010, dated 2014)

Legend:
[1] = Stain removal on wine stains (MiniWasher, image analysis); settings: wash 32.2° C., 6 gpg hardness, 12 minutes
Protocol: (§1) The performance of the chelants were measured on wine and tea. Wine and tea stains were applied to cotton and obtained from EMC (US). Stains and ballast load consisting of 0.5 kg of T-shirt was added to a MiniWasher representing a medium US wash conditions. The wash water was set at 32.2° C.±1° C. and 6 gpg (1 mmol/L) hardness and the rinse water was set at 15.5° C.±1° C. The water volume was 15 liters and wash time 12 minutes.
(§2) The stains and the ballast were dried at the end of each cycle under high speed and high heat with cool down cycle. The results were then analyzed by image analysis which is a method that enables to calculate the amount of stain that is removed. Stains are imaged before washing and after washing. The imaging calculates the amount of stain removal index (SRI). SRI of 100 means complete removal and SRI of zero is no removal.
(§3) The Laundry Image Analysis system (Merlin image analysis system) measures stain removal on technical stain swatches. The system utilizes a video camera to acquire color images of swatches. An image of the swatch is taken before and after it is washed. The acquired image is then analyzed by computer software (Global R&D computing). The software compares the unwashed stain to the washed stain, as well as the unwashed fabric to the washed fabric and produces five figures of merit which describe stain removal. The data are then analyzed statistically to determine statistically significant differences between the detergent performances.
(§4) The stain removal index uses the initial fabric as the reference against which to measure color differences between unwashed and washed stains. A higher value indicates a better cleaning and stain removal thus a better detergent. The standard deviation is 1.

[2] = Stain removal on tea stains (MiniWasher, image analysis); settings: wash 32.2° C., 6 gpg hardness, 12 minutes
Protocol: as §1, §2, §3, §4

[3] = Product stability on storage, assessed visually; format: physicochemical
Protocol: Products (I through III) were prepared by combining Composition C and the 3 different chelant combinations. The products (75 g) were stored for 4 weeks at 4° C., 20° C. and 35° C. in a Glass Jar (100 mL contenance). The product stability was then assessed visually. If there is a visual precipitate or a product phase split, the stability is considered Fail. Stability is considered Pass if there is no signs of changes during the storage period.

[4] = Cleaning efficacy of compact liquid detergent composition; settings: composition comprising 0.7% of Na-DTPA
[5] = chelant 1 ppm, SRI 100 = complete removal, standard deviation 1

SMILES | Stain Removal Index Wine [1, 5] | Stain Removal Index Wine ([1]; chelant 2 ppm) | Stain Removal Index Wine ([1]; chelant 3 ppm) | Stain Removal Index Tea [2, 5] | Stain Removal Index Tea ([2]; chelant 2 ppm) | Stain Removal Index Tea ([2]; chelant 3 ppm) | Stability of compact liquid detergent composition ([3]; composition comprising 0.7% of Na-DTPA) | Stability of compact liquid detergent composition ([3]; quantity of Na-DTPA increased to the effective level) | Cleaning efficacy [4]
O=C([O-])CN(CCN(CC(=O)[O-])CC(=O)[O-])CCN(CC(=O)[O-])CC(=O)[O-].[Na+].[Na+].[Na+].[Na+].[Na+] [Na-DTPA, sodium salt of diethylene triamine pentaacetate] | 55.2 | 55.8 | 56.4 | 27.6 | 29.0 | 27.1 | stable | does not meet the stability requirements | does not provide desired cleaning efficacy
O=C([O-])CC(NCCNC(CC(=O)O)C(=O)[O-])C(=O)[O-].[Na+].[Na+].[Na+] (stereo not drawn) [Na-EDDS, sodium salt of Ethylenediamine-N,N′-disuccinic acid] | 58.3 | 59.0 | 56.8 | 28.2 | 29.3 | 26.1 |  |  | 
